According to patent US8604054B2, “Triglyceride-lowering agent and hyperinsulinism-ameliorating agent” (Kowa Co., Ltd., priority 2006, dated 2013):

How the values were obtained:
[1] = fructose-loaded rats, oral once a day for 21 days, pitavastatin 10 mg/kg, amlodipine 15 mg/kg; for plasma triglyceride level compared with the control group (FIG. 1): Dunnett's test, combination p<0.01
[2] = fructose-loaded rats, oral once a day for 21 days, pitavastatin 10 mg/kg, amlodipine 15 mg/kg; for plasma insulin level compared with the control group (FIG. 2): Dunnett's test, combination p<0.05
[3] = blood 22 hours after final administration

SMILES | plasma triglyceride level compared with the control group (FIG. 1) [1] | plasma insulin level compared with the control group (FIG. 2) [2] | relative plasma triglyceride level (based on the control group) [1, 3] | relative plasma insulin level (based on the control group) [2, 3]
CCOC(=O)C1=C(COCCN)NC(C)=C(C(=O)OC)C1c1ccccc1Cl (stereo not drawn) [amlodipine, amlodipine besylate] | almost equivalent to those of the control group | not significantly changed as compared with the control group | – | –
O=C([O-])C[C@H](O)C[C@H](O)/C=C/c1c(C2CC2)nc2ccccc2c1-c1ccc(F)cc1.O=C([O-])C[C@H](O)C[C@H](O)/C=C/c1c(C2CC2)nc2ccccc2c1-c1ccc(F)cc1.[Ca+2] [pitavastatin, Pitavastatin calcium] | almost equivalent to those of the control group | not significantly changed as compared with the control group | 0.966 | 0.971
